Test results: BindingDB's records for patent US20250136570 (Tango Therapeutics, 2025)

Target: Histone deacetylase 1 (Homo sapiens, UniProt Q13547)
Assay: HDAC1 & HDAC3 Inhibition Assay
Experimental: IC50 determination for HDAC1 and HDAC3-Prior to adding reagents, 50 nL/well of compound were added to Proxiplates using an Echo dispenser instrument (Beckman Coulter, CA, US). After addition of compound, 2.5 μL/well of 2× enzyme solution was added and the enzyme was pre-incubated with compound for 3 hours at room temp. (˜22° C.). After the pre-incubation period, the enzyme reaction was initiated by adding 2.5 μL/well of 2× Fluor de Lys substrate solution. The assay reaction was stopped after one hour by adding 5 μl/well of a 0.66× Developer solution containing TSA (3.2 μM). The final product of the enzyme reaction was read using a Spectramax plate reader instrument (Molecular Devices, CA, US) using a fluorescent readout (Ex 360 nm/Em 460 nm). The final enzyme concentrations in the assay buffer for HDAC1 and 3 were 6 and 1.2 nM, respectively. The final Fluor de Lys substrate concentration in the assay buffer was 16 μM for all HDAC enzymes. IC50 values were determined using the following equation:EfreeEo=100(1-11+(1IC50)n)(1)Where Efree and Eo are the free and total amount of HDAC enzyme in the reaction mixture, n is the hill coefficient, I is the free inhibitor concentration, and IC50 is the measure of the potency equivalent to the inhibitor concentration that leads to a 50% occupancy of the total enzyme. Each data was generated in duplicate.

Chain of Histone deacetylase 1 (Q13547 whole entry): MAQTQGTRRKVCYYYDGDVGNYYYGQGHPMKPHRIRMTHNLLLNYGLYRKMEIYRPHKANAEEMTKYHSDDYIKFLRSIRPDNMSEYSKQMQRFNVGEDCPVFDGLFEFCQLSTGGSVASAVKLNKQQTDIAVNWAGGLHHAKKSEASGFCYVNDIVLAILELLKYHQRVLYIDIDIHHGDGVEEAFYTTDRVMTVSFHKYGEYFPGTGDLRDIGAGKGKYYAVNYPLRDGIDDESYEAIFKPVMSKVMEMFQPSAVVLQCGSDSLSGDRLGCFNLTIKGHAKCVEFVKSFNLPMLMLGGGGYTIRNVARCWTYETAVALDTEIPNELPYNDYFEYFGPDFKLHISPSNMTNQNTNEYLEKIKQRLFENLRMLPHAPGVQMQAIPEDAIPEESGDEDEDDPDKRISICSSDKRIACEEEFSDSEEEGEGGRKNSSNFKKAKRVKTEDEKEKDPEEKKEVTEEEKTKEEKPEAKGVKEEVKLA

IC50 | Structure (SMILES)
< 100 nM | Nc1ccc(-c2cccs2)cc1NC(=O)c1ccc(S2(=O)=NCCC2)cc1 (stereo unspecified) [US20250136570, Compound 126]
< 100 nM | Nc1ccc(-c2ccc(F)s2)cc1NC(=O)c1ccc(S2(=O)=NCCC2)cc1 (stereo unspecified) [US20250136570, Compound 160]
< 100 nM | Nc1ccc(-c2ccc(F)cc2)cc1NC(=O)c1ccc(S2(=O)=NCCC2)nc1 (stereo unspecified) [US20250136570, Compound 178]
< 100 nM | Nc1ccc(-c2ccc(F)cc2)cc1NC(=O)c1cc2cc(S3(=O)=NCCC3)ccc2s1 (stereo unspecified) [US20250136570, Compound 204]
< 100 nM | N=S(=O)(c1ccc(C(=O)Nc2cc(-c3ccc(F)cc3)ccc2N)cc1)c1ccc(Cl)cn1 (stereo unspecified) [US20250136570, Compound 213]
< 100 nM | Nc1ccc(-c2ccc(F)cc2)cc1NC(=O)c1ccc(S2(=O)=NCCCC2)cc1 (stereo unspecified) [US20250136570, Compound 243]
